From the supplement of paper PMC10307832

Assays:
Test in all cases: relative viability (nuclei count vs DMSO), 5 days (fraction); higher = more cells survive
COR-L23 = system: COR-L23
How it was run: (§1)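 Each reported value is a median over duplicate plates. It expresses relative viability: treated-well nuclei count divided by vehicle-well nuclei count. Lung cancer cell lines in 1536-well plates were dosed by pin tool a day after seeding, alone with one drug or with a fixed anchor-drug dose plus five library-drug doses (not always all listed) in √10 steps, and nuclei were counted after 5 days.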

NCI-H1299 = system: NCI-H1299
How it was run: as §1

SK-MES-1 = system: SK-MES-1
How it was run: as §1

NCI-H1651 = system: NCI-H1651
How it was run: as §1

Calu-6 = system: Calu-6
How it was run: as §1

EBC-1 = system: EBC-1
How it was run: as §1

ABC-1 = system: ABC-1
How it was run: as §1

NCI-H1703 = system: NCI-H1703
How it was run: as §1

ChaGo-K-1 = system: ChaGo-K-1
How it was run: as §1

A549 = system: A549
How it was run: as §1

NCI-H1648 = system: NCI-H1648
How it was run: as §1

NCI-H1437 = system: NCI-H1437
How it was run: as §1

IA-LM = system: IA-LM
How it was run: as §1

SW 1573 = system: SW 1573
How it was run: as §1

## Cc1sc2c(c1C)C(c1ccc(Cl)cc1)=N[C@@H](CC(=O)OC(C)(C)C)c1nnc(C)n1-2 [JQ1] + O=C(c1cc(Cc2n[nH]c(=O)c3ccccc23)ccc1F)N1CCN(C(=O)C2CC2)CC1 [Olaparib] (partner 8 µM)
COR-L23; first compound 0.04 µM
  relative viability: 0.357
COR-L23; first compound 0.1265 µM
  relative viability: 0.229
COR-L23; first compound 0.4 µM
  relative viability: 0.295
COR-L23; first compound 1.265 µM
  relative viability: 0.11
COR-L23; first compound 4 µM
  relative viability: 0.136
NCI-H1299; first compound 0.04 µM
  relative viability: 0.931
NCI-H1299; first compound 0.1265 µM
  relative viability: 0.787
NCI-H1299; first compound 0.4 µM
  relative viability: 0.972
NCI-H1299; first compound 1.265 µM
  relative viability: 0.298
NCI-H1299; first compound 4 µM
  relative viability: 0.235
SK-MES-1; first compound 0.04 µM
  relative viability: 0.671
SK-MES-1; first compound 0.1265 µM
  relative viability: 0.606
SK-MES-1; first compound 0.4 µM
  relative viability: 0.385
SK-MES-1; first compound 1.265 µM
  relative viability: 0.208
SK-MES-1; first compound 4 µM
  relative viability: 0.209
NCI-H1651; first compound 0.04 µM
  relative viability: 0.175
NCI-H1651; first compound 0.1265 µM
  relative viability: 0.173
NCI-H1651; first compound 0.4 µM
  relative viability: 0.151
NCI-H1651; first compound 1.265 µM
  relative viability: 0.132
NCI-H1651; first compound 4 µM
  relative viability: 0.136
Calu-6; first compound 0.04 µM
  relative viability: 0.536
Calu-6; first compound 0.1265 µM
  relative viability: 0.408
Calu-6; first compound 0.4 µM
  relative viability: 0.511
Calu-6; first compound 1.265 µM
  relative viability: 0.251
Calu-6; first compound 4 µM
  relative viability: 0.249
EBC-1; first compound 0.04 µM
  relative viability: 0.74
EBC-1; first compound 0.1265 µM
  relative viability: 0.473
EBC-1; first compound 0.4 µM
  relative viability: 0.312
EBC-1; first compound 1.265 µM
  relative viability: 0.093
EBC-1; first compound 4 µM
  relative viability: 0.113
ABC-1; first compound 0.04 µM
  relative viability: 0.772
ABC-1; first compound 0.1265 µM
  relative viability: 0.575
ABC-1; first compound 0.4 µM
  relative viability: 0.744
ABC-1; first compound 1.265 µM
  relative viability: 0.748
ABC-1; first compound 4 µM
  relative viability: 0.385
NCI-H1703; first compound 0.04 µM
  relative viability: 0.458
NCI-H1703; first compound 0.4 µM
  relative viability: 0.498
NCI-H1703; first compound 1.265 µM
  relative viability: 0.236
NCI-H1703; first compound 4 µM
  relative viability: 0.234
ChaGo-K-1; first compound 0.04 µM
  relative viability: 0.392
ChaGo-K-1; first compound 0.1265 µM
  relative viability: 0.37
ChaGo-K-1; first compound 0.4 µM
  relative viability: 0.29
ChaGo-K-1; first compound 1.265 µM
  relative viability: 0.239
ChaGo-K-1; first compound 4 µM
  relative viability: 0.214
A549; first compound 0.04 µM
  relative viability: 0.303
A549; first compound 0.1265 µM
  relative viability: 0.213
A549; first compound 0.4 µM
  relative viability: 0.255
A549; first compound 1.265 µM
  relative viability: 0.102
A549; first compound 4 µM
  relative viability: 0.045
NCI-H1648; first compound 0.04 µM
  relative viability: 0.66
NCI-H1648; first compound 0.1265 µM
  relative viability: 1.03
NCI-H1648; first compound 0.4 µM
  relative viability: 0.462
NCI-H1648; first compound 1.265 µM
  relative viability: 0.485
NCI-H1648; first compound 4 µM
  relative viability: 0.289
NCI-H1437; first compound 0.04 µM
  relative viability: 0.595
NCI-H1437; first compound 0.1265 µM
  relative viability: 0.572
NCI-H1437; first compound 0.4 µM
  relative viability: 0.519
NCI-H1437; first compound 1.265 µM
  relative viability: 0.29
NCI-H1437; first compound 4 µM
  relative viability: 0.279
IA-LM; first compound 0.04 µM
  relative viability: 0.739
IA-LM; first compound 0.1265 µM
  relative viability: 0.508
IA-LM; first compound 0.4 µM
  relative viability: 0.17
IA-LM; first compound 1.265 µM
  relative viability: 0.115
IA-LM; first compound 4 µM
  relative viability: 0.117
SW 1573; first compound 0.04 µM
  relative viability: 0.428
SW 1573; first compound 0.1265 µM
  relative viability: 0.317
SW 1573; first compound 0.4 µM
  relative viability: 0.344
SW 1573; first compound 1.265 µM
  relative viability: 0.211
SW 1573; first compound 4 µM
  relative viability: 0.178
